Test results reported in ChEMBL document CHEMBL5257124, “Design, synthesis and biological evaluation of novel indole-piperazine derivatives as antibacterial agents” (Bioorg Med Chem Lett, 2023).
In brackets after ≈: the same amount, converted by molar mass. Activity calls are given as the source filed them. No cut-off for these calls is given here.

Key:
Histone deacetylase 1 = Histone deacetylase 1 (Homo sapiens, UniProt Q13547); assay: Inhibition of full length C-terminal His/FLAG tagged human recombinant HDAC1 (1 to 482 residues) expressed in baculovirus-infected Sf9 cells using RHK-K(Ac)-AMC as substrate incubated for 2 hrs
Staphylococcus aureus [1] = assay: Antibacterial activity against methicillin resistant Staphylococcus aureus ATCC 33591 assessed as reduction in bacterial growth; format: functional
Escherichia coli [2] = assay: Antibacterial activity against Escherichia coli ATCC 25922 assessed as reduction in bacterial growth; format: functional
Bacillus cereus = assay: Antibacterial activity against Bacillus cereus assessed as reduction in bacterial growth; format: functional
Pseudomonas syringae = assay: Antibacterial activity against Pseudomonas syringae pv. actinidiae assessed as bacterial growth inhibition; format: functional
Ralstonia solanacearum = assay: Antibacterial activity against Ralstonia solanacearum assessed as bacterial growth inhibition; format: functional
Staphylococcus aureus [3] = assay: Antibacterial activity against Staphylococcus aureus ATCC 25923 assessed as reduction in bacterial growth; format: functional
Staphylococcus aureus [4] = assay: Bactericidal activity against Staphylococcus aureus ATCC 25923 assessed as reduction in bacterial growth; format: functional
Escherichia coli [5] = assay: Bactericidal activity against Escherichia coli ATCC 25922 assessed as reduction in bacterial growth; format: functional
Staphylococcus aureus [6] = assay: Bactericidal activity against methicillin resistant Staphylococcus aureus ATCC 33591 assessed as reduction in bacterial growth; format: functional
Staphylococcus aureus [7] = assay: Drug resistance against Staphylococcus aureus assessed as fold increase in MIC measured after 19 passaging for 19 days; format: functional; settings: time 19 day
Staphylococcus aureus [8] = assay: Antibacterial activity against methicillin resistant Staphylococcus aureus assessed as reduction in bacterial growth at 8 times MIC measured at 24 hrs by time kill assay; format: functional, organism-based
Staphylococcus aureus [9] = assay: Antibacterial activity against methicillin resistant Staphylococcus aureus assessed as reduction in bacterial growth at 16 microg/ml measured for 2 hrs; format: functional; settings: dose 16 µg/ml
Staphylococcus aureus [10] = assay: Antibacterial activity against methicillin resistant Staphylococcus aureus assessed as reduction in bacterial growth at 1 times MIC by time kill assay; format: functional, organism-based
BV-2 = assay: Cytotoxicity against mouse BV-2 cells assessed as inhibition of cell growth at 20 to 50 microg/ml measured for 24 hrs by MTT assay; format: toxicity, cell-based; settings: bv-2, 24 h, dose 20-50 µg/ml
Staphylococcus aureus [11] = assay: Antibacterial activity against methicillin resistant Staphylococcus aureus assessed as reduction in bacterial growth at 8 microg/ml measured for 2 hrs; format: functional; settings: dose 8 µg/ml
PC-12 = assay: Cytotoxicity against rat PC12 cells assessed as inhibition of cell growth at 20 to 50 microg/ml measured for 24 hrs by MTT assay; format: toxicity, cell-based; settings: pc-12, 24 h, dose 20-50 µg/ml
Staphylococcus aureus [12] = assay: Antibacterial activity against methicillin resistant Staphylococcus aureus assessed as reduction in bacterial growth at 1 microg/ml measured for 2 hrs; format: functional; settings: dose 1 µg/ml
Staphylococcus aureus [13] = assay: Antibacterial activity against methicillin resistant Staphylococcus aureus assessed as reduction in bacterial growth at 2 microg/ml measured for 2 hrs; format: functional; settings: dose 2 µg/ml
Staphylococcus aureus [14] = assay: Antibacterial activity against methicillin resistant Staphylococcus aureus assessed as reduction in bacterial growth at 8 times MIC measured at 12 hrs by time kill assay; format: functional; set-up: scale not given: the % may be the effect or the level left

Histone deacetylase 1, sequence (Q13547 whole entry, the tested form may be a part): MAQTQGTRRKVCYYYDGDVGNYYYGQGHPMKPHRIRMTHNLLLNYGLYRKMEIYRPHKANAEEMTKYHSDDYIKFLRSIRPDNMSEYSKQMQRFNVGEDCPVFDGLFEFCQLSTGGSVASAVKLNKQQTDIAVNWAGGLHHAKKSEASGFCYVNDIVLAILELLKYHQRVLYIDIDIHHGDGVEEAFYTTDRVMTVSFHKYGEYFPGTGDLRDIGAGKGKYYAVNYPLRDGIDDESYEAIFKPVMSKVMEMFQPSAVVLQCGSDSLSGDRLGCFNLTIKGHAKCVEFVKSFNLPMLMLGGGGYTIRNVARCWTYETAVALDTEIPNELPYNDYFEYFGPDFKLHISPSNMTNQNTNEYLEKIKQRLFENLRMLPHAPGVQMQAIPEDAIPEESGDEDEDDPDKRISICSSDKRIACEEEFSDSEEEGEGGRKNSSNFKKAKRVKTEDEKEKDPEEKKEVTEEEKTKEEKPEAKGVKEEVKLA

## O=C1CN(Cc2ccc(C(=O)NO)cc2)C(=O)[C@H](Cc2c[nH]c3ccccc23)N1
Histone deacetylase 1
  IC50: 405 nM

## COc1ccc2[nH]cc(CN3CCN(Cc4ccc(C(F)(F)F)cc4N4CCCC4)CC3)c2c1
Staphylococcus aureus [1]
  MIC: 8 µg/mL (≈ 16.9 µM)
Escherichia coli [2]
  MIC: 32 µg/mL (≈ 67.7 µM)
Bacillus cereus
  MIC: 16 µg/mL (≈ 33.9 µM)
Pseudomonas syringae
  MIC: 16 µg/mL (≈ 33.9 µM)
Ralstonia solanacearum
  MIC: 16 µg/mL (≈ 33.9 µM)
Staphylococcus aureus [3]
  MIC: 16 µg/mL (≈ 33.9 µM)

## Cn1cc(CN2CCN(Cc3ccc(C(F)(F)F)cc3N3CCCC3)CC2)c2cc(F)ccc21
Staphylococcus aureus [1]
  MIC: 8 µg/mL (≈ 16.9 µM)
Escherichia coli [2]
  MIC: 32 µg/mL (≈ 67.4 µM)
Bacillus cereus
  MIC: 8 µg/mL (≈ 16.9 µM)
Pseudomonas syringae
  MIC: 32 µg/mL (≈ 67.4 µM)
Ralstonia solanacearum
  MIC: 32 µg/mL (≈ 67.4 µM)
Staphylococcus aureus [3]
  MIC: 8 µg/mL (≈ 16.9 µM)

## O=[N+]([O-])c1ccc2[nH]cc(CN3CCN(Cc4ccc(C(F)(F)F)cc4N4CCCC4)CC3)c2c1
Staphylococcus aureus [1]
  MIC: 16 µg/mL (≈ 32.8 µM)
Escherichia coli [2]
  MIC: 32 µg/mL (≈ 65.6 µM)
Bacillus cereus
  MIC: 16 µg/mL (≈ 32.8 µM)
Pseudomonas syringae
  MIC: 32 µg/mL (≈ 65.6 µM)
Ralstonia solanacearum
  MIC: 32 µg/mL (≈ 65.6 µM)
Staphylococcus aureus [3]
  MIC: 16 µg/mL (≈ 32.8 µM)

## Cn1cc(CN2CCN(Cc3ccc(Cl)cc3Cl)CC2)c2cc(Br)ccc21
Staphylococcus aureus [1]
  MIC: 4 µg/mL (≈ 8.56 µM)
Escherichia coli [2]
  MIC: 16 µg/mL (≈ 34.2 µM)
Bacillus cereus
  MIC: 8 µg/mL (≈ 17.1 µM)
Staphylococcus aureus [4]
  MBC: 16 µg/mL (≈ 34.2 µM)
Pseudomonas syringae
  MIC: 16 µg/mL (≈ 34.2 µM)
Escherichia coli [5]
  MBC: 16 µg/mL (≈ 34.2 µM)
Ralstonia solanacearum
  MIC: 32 µg/mL (≈ 68.5 µM)
Staphylococcus aureus [3]
  MIC: 8 µg/mL (≈ 17.1 µM)
Staphylococcus aureus [6]
  MBC: 8 µg/mL (≈ 17.1 µM)

## Cn1cc(CN2CCN(Cc3ccc(Cl)cc3Cl)CC2)c2cc(Cl)ccc21
Staphylococcus aureus [1]
  MIC: 4 µg/mL (≈ 9.46 µM)
Staphylococcus aureus [7]
  fold change (FC): <4
Escherichia coli [2]
  MIC: 16 µg/mL (≈ 37.8 µM)
Staphylococcus aureus [8]
  Activity: Active
Bacillus cereus
  MIC: 4 µg/mL (≈ 9.46 µM)
Staphylococcus aureus [4]
  MBC: 8 µg/mL (≈ 18.9 µM)
Pseudomonas syringae
  MIC: 8 µg/mL (≈ 18.9 µM)
Escherichia coli [5]
  MBC: 16 µg/mL (≈ 37.8 µM)
Staphylococcus aureus [9]
  PAE: 2.21 h
Ralstonia solanacearum
  MIC: 8 µg/mL (≈ 18.9 µM)
Staphylococcus aureus [3]
  MIC: 4 µg/mL (≈ 9.46 µM)
Staphylococcus aureus [10]
  Activity: Active
BV-2
  Activity: Non-Toxic
Staphylococcus aureus [6]
  MBC: 8 µg/mL (≈ 18.9 µM)
Staphylococcus aureus [11]
  PAE: 1.6 h
PC-12
  Activity: Non-Toxic

## Cn1cc(CN2CCN(Cc3ccc(Cl)cc3Cl)CC2)c2cc(F)ccc21
Staphylococcus aureus [1]
  MIC: 8 µg/mL (≈ 19.7 µM)
Escherichia coli [2]
  MIC: 32 µg/mL (≈ 78.8 µM)
Bacillus cereus
  MIC: 8 µg/mL (≈ 19.7 µM)
Pseudomonas syringae
  MIC: 32 µg/mL (≈ 78.8 µM)
Ralstonia solanacearum
  MIC: 32 µg/mL (≈ 78.8 µM)
Staphylococcus aureus [3]
  MIC: 8 µg/mL (≈ 19.7 µM)

## O=C(O)c1cn(C2CC2)c2cc(N3CCNCC3)c(F)cc2c1=O [CIPROFLOXACIN]
Staphylococcus aureus [1]
  MIC: 0.5 µg/mL (≈ 1.51 µM)
Staphylococcus aureus [8]
  Activity: Active
Escherichia coli [5]
  MBC: 1 µg/mL (≈ 3.02 µM)
Staphylococcus aureus [3]
  MIC: 0.5 µg/mL (≈ 1.51 µM)
Staphylococcus aureus [12]
  PAE: 1.22 h
Staphylococcus aureus [13]
  PAE: 1.58 h
Staphylococcus aureus [10]
  Activity: Active
Staphylococcus aureus [14]
  Activity: 99.9%
Staphylococcus aureus [6]
  MBC: 2 µg/mL (≈ 6.04 µM)

## FC(F)(F)c1ccc(CN2CCN(Cc3c[nH]c4ccc(Cl)cc34)CC2)c(N2CCCC2)c1
Staphylococcus aureus [1]
  MIC: 4 µg/mL (≈ 8.39 µM)
Escherichia coli [2]
  MIC: 16 µg/mL (≈ 33.5 µM)
Staphylococcus aureus [8]
  Activity: Active
Bacillus cereus
  MIC: 4 µg/mL (≈ 8.39 µM)
Staphylococcus aureus [4]
  MBC: 8 µg/mL (≈ 16.8 µM)
Pseudomonas syringae
  MIC: 8 µg/mL (≈ 16.8 µM)
Escherichia coli [5]
  MBC: 32 µg/mL (≈ 67.1 µM)
Staphylococcus aureus [9]
  PAE: 0.61 h
Ralstonia solanacearum
  MIC: 8 µg/mL (≈ 16.8 µM)
Staphylococcus aureus [3]
  MIC: 4 µg/mL (≈ 8.39 µM)
BV-2
  Activity: Non-Toxic
Staphylococcus aureus [6]
  MBC: 8 µg/mL (≈ 16.8 µM)
Staphylococcus aureus [11]
  PAE: 0.36 h
PC-12
  Activity: Non-Toxic

## Cn1cc(CN2CCN(Cc3ccc(Cl)cc3Cl)CC2)c2cc(C#N)ccc21
Staphylococcus aureus [1]
  MIC: 8 µg/mL (≈ 19.4 µM)
Escherichia coli [2]
  MIC: 32 µg/mL (≈ 77.4 µM)
Bacillus cereus
  MIC: 8 µg/mL (≈ 19.4 µM)
Pseudomonas syringae
  MIC: 32 µg/mL (≈ 77.4 µM)
Ralstonia solanacearum
  MIC: 16 µg/mL (≈ 38.7 µM)
Staphylococcus aureus [3]
  MIC: 8 µg/mL (≈ 19.4 µM)

## O=[N+]([O-])c1ccc2[nH]cc(CN3CCN(Cc4ccc(Cl)cc4Cl)CC3)c2c1
Staphylococcus aureus [1]
  MIC: 8 µg/mL (≈ 19.1 µM)
Escherichia coli [2]
  MIC: 32 µg/mL (≈ 76.3 µM)
Bacillus cereus
  MIC: 8 µg/mL (≈ 19.1 µM)
Pseudomonas syringae
  MIC: 32 µg/mL (≈ 76.3 µM)
Ralstonia solanacearum
  MIC: 32 µg/mL (≈ 76.3 µM)
Staphylococcus aureus [3]
  MIC: 8 µg/mL (≈ 19.1 µM)

## Cn1cc(CN2CCN(Cc3ccc(C(F)(F)F)cc3N3CCCC3)CC2)c2cc(C#N)ccc21
Staphylococcus aureus [1]
  MIC: 16 µg/mL (≈ 33.2 µM)
Escherichia coli [2]
  MIC: 32 µg/mL (≈ 66.4 µM)
Bacillus cereus
  MIC: 16 µg/mL (≈ 33.2 µM)
Pseudomonas syringae
  MIC: 32 µg/mL (≈ 66.4 µM)
Ralstonia solanacearum
  MIC: 32 µg/mL (≈ 66.4 µM)
Staphylococcus aureus [3]
  MIC: 16 µg/mL (≈ 33.2 µM)
